Test results published in ChEMBL document CHEMBL3414527, “Engineering potent and selective analogues of GpTx-1, a tarantula venom peptide antagonist of the Na(V)1.7 sodium channel” (J Med Chem, 2015).
Bridge positions count the residues as written; N and C are the ends. Peptide text beside a SMILES is read from it.

Target: Sodium channel protein type 5 subunit alpha (Homo sapiens, UniProt Q14524)
Assay: Inhibition of human NaV1.5 at -140 mV holding potential by whole-cell patch clamp assay

Sequence of Sodium channel protein type 5 subunit alpha (Q14524 whole entry): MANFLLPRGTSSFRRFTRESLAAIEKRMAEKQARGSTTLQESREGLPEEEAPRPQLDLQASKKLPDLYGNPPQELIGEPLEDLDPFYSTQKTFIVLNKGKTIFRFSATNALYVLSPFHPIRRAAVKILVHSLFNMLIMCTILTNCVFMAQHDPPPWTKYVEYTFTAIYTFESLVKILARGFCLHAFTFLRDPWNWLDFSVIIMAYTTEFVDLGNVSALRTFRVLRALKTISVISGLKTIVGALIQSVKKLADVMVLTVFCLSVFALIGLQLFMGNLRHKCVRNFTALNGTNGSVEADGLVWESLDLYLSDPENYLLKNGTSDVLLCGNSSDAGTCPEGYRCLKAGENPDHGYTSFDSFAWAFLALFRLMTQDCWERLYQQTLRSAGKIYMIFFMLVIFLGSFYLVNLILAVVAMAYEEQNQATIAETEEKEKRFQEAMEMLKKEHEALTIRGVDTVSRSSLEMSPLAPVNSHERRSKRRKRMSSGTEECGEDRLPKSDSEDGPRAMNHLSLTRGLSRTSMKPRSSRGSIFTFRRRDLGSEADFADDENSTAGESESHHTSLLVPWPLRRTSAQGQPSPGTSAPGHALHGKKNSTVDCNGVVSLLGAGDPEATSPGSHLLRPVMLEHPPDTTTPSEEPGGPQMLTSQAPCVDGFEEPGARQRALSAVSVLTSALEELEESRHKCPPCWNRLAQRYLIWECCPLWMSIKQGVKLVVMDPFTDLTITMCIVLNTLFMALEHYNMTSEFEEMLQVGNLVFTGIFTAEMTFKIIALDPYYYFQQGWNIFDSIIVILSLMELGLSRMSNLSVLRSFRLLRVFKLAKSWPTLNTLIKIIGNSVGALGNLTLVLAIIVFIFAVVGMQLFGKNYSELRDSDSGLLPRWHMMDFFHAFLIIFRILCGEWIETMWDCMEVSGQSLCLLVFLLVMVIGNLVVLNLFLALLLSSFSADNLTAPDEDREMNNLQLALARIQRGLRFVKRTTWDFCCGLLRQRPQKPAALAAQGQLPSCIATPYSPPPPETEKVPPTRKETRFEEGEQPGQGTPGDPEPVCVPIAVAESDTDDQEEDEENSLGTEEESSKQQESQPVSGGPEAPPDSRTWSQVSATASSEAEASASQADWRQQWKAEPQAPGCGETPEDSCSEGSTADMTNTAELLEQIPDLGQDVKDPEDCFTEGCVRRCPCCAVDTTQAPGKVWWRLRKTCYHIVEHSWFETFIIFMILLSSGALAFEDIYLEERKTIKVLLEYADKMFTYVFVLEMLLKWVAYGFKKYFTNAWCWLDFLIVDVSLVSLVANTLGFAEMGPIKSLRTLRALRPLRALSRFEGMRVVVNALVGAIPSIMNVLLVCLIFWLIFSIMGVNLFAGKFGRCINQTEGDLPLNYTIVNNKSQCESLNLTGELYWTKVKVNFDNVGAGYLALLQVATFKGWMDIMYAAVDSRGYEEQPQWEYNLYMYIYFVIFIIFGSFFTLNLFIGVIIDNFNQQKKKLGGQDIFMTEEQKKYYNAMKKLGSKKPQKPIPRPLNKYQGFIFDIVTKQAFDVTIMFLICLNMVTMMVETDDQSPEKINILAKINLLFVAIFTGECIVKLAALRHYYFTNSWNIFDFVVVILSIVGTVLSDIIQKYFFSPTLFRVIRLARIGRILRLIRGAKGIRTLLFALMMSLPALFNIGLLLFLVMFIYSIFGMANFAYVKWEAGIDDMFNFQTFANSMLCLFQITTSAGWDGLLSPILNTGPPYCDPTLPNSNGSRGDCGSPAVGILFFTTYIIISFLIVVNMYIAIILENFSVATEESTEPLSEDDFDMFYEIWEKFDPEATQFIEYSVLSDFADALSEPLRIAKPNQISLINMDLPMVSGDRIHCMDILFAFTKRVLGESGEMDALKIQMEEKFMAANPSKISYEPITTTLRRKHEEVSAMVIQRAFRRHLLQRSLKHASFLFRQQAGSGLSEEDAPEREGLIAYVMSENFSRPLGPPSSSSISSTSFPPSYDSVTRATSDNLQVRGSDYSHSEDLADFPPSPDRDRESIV

| Compound | IC50 [µM] |
| --- | --- |
| CC[C@H](C)[C@@H]1NC(=O)[C@@H]2CSSC[C@@H]3NC(=O)[C@H](C(C)C)NC(=O)[C@H](CC(C)C)NC(=O)[C@H](CC(N)=O)NC(=O)[C@@H]4CCCN4C(=O)[C@H](CCCNC(=N)N)NC(=O)[C@H](CSSC[C@H](NC(=O)[C@@H](N)CC(=O)O)C(=O)N[C@@H](CC(C)C)C(=O)NCC(=O)N[C@@H](Cc4ccccc4)C(=O)N[C@@H](CCSC)C(=O)N[C@@H](CCCNC(=N)N)C(=O)N[C@@H](CCCCN)C(=O)N2)NC(=O)[C@H](CSSC[C@@H](C(=O)N[C@@H](CCCCN)C(=O)N[C@@H](Cc2ccc(O)cc2)C(=O)N[C@H](C(=O)N[C@@H](Cc2ccccc2)C(N)=O)C(C)C)NC(=O)[C@H](Cc2c[nH]c4ccccc24)NC(=O)[C@H](CCCCN)NC(=O)[C@H](Cc2cnc[nH]2)NC(=O)[C@H](CCCNC(=N)N)NC(=O)[C@H](CCCNC(=N)N)NC(=O)[C@H](CO)NC3=O)NC(=O)[C@H](CCCCN)NC(=O)[C@H](CC(=O)O)NC(=O)[C@H](CC(N)=O)NC(=O)[C@H](CC(=O)O)NC(=O)[C@@H]2CCCN2C1=O (H-DCLGFMRKCIPDNDKCCRPNLVCSRRHKWCKYVF-NH2; disulfide 2-17, 9-23, 16-30) | 0.5 |
| CC[C@H](C)[C@@H]1NC(=O)[C@@H]2CSSC[C@@H]3NC(=O)[C@H](C(C)C)NC(=O)[C@H](CC(C)C)NC(=O)[C@H](CC(N)=O)NC(=O)[C@@H]4CCCN4C(=O)[C@H](CCCNC(=N)N)NC(=O)[C@H](CSSC[C@H](NC(=O)[C@@H](N)CC(=O)O)C(=O)N[C@@H](CC(C)C)C(=O)NCC(=O)N[C@@H](CCSC)C(=O)N[C@@H](CCSC)C(=O)N[C@@H](CCCNC(=N)N)C(=O)N[C@@H](CCCCN)C(=O)N2)NC(=O)[C@H](CSSC[C@@H](C(=O)N[C@@H](CCCCN)C(=O)N[C@@H](Cc2ccc(O)cc2)C(=O)N[C@H](C(=O)N[C@@H](Cc2ccccc2)C(N)=O)C(C)C)NC(=O)[C@H](Cc2c[nH]c4ccccc24)NC(=O)[C@H](CCCCN)NC(=O)[C@H](Cc2cnc[nH]2)NC(=O)[C@H]([C@@H](C)O)NC(=O)[C@H](CCCNC(=N)N)NC(=O)[C@H](CO)NC3=O)NC(=O)[C@H](CCCCN)NC(=O)[C@H](CC(=O)O)NC(=O)[C@H](CC(N)=O)NC(=O)[C@H](CC(=O)O)NC(=O)[C@@H]2CCCN2C1=O (H-DCLGMMRKCIPDNDKCCRPNLVCSRTHKWCKYVF-NH2; disulfide 2-17, 9-23, 16-30) | > 10 |
| CC[C@H](C)[C@@H]1NC(=O)[C@@H]2CSSC[C@@H]3NC(=O)[C@H](C(C)C)NC(=O)[C@H](CC(C)C)NC(=O)[C@H](CC(N)=O)NC(=O)[C@@H]4CCCN4C(=O)[C@H](CCCNC(=N)N)NC(=O)[C@H](CSSC[C@H](NC(=O)[C@@H](N)CC(=O)O)C(=O)N[C@@H](CC(C)C)C(=O)N[C@@H](C)C(=O)N[C@@H](Cc4ccccc4)C(=O)N[C@@H](CCSC)C(=O)N[C@@H](CCCNC(=N)N)C(=O)N[C@@H](CCCCN)C(=O)N2)NC(=O)[C@H](CSSC[C@@H](C(=O)N[C@@H](CCCCN)C(=O)N[C@@H](Cc2ccc(O)cc2)C(=O)N[C@H](C(=O)N[C@@H](Cc2ccccc2)C(N)=O)C(C)C)NC(=O)[C@H](Cc2c[nH]c4ccccc24)NC(=O)[C@H](CCCCN)NC(=O)[C@H](Cc2cnc[nH]2)NC(=O)[C@H]([C@@H](C)O)NC(=O)[C@H](CCCNC(=N)N)NC(=O)[C@H](CO)NC3=O)NC(=O)[C@H](CCCCN)NC(=O)[C@H](CC(=O)O)NC(=O)[C@H](CC(N)=O)NC(=O)[C@H](CC(=O)O)NC(=O)[C@@H]2CCCN2C1=O (H-DCLAFMRKCIPDNDKCCRPNLVCSRTHKWCKYVF-NH2; disulfide 2-17, 9-23, 16-30) | > 5 |
| CC[C@H](C)[C@@H]1NC(=O)[C@@H]2CSSC[C@@H]3NC(=O)[C@H](C(C)C)NC(=O)[C@H](CC(C)C)NC(=O)[C@H](C)NC(=O)[C@@H]4CCCN4C(=O)[C@H](CCCNC(=N)N)NC(=O)[C@H](CSSC[C@H](NC(=O)[C@@H](N)CC(=O)O)C(=O)N[C@@H](CC(C)C)C(=O)NCC(=O)N[C@@H](Cc4ccccc4)C(=O)N[C@@H](CCSC)C(=O)N[C@@H](CCCNC(=N)N)C(=O)N[C@@H](CCCCN)C(=O)N2)NC(=O)[C@H](CSSC[C@@H](C(=O)N[C@@H](CCCCN)C(=O)N[C@@H](Cc2ccc(O)cc2)C(=O)N[C@H](C(=O)N[C@@H](Cc2ccccc2)C(N)=O)C(C)C)NC(=O)[C@H](Cc2c[nH]c4ccccc24)NC(=O)[C@H](CCCCN)NC(=O)[C@H](Cc2cnc[nH]2)NC(=O)[C@H]([C@@H](C)O)NC(=O)[C@H](CCCNC(=N)N)NC(=O)[C@H](CO)NC3=O)NC(=O)[C@H](CCCCN)NC(=O)[C@H](CC(=O)O)NC(=O)[C@H](CC(N)=O)NC(=O)[C@H](CC(=O)O)NC(=O)[C@@H]2CCCN2C1=O (H-DCLGFMRKCIPDNDKCCRPALVCSRTHKWCKYVF-NH2; disulfide 2-17, 9-23, 16-30) | > 5 |
| CC[C@H](C)[C@@H]1NC(=O)[C@@H]2CSSC[C@@H]3NC(=O)[C@H](C(C)C)NC(=O)[C@H](CC(C)C)NC(=O)[C@H](CC(N)=O)NC(=O)[C@@H]4CCCN4C(=O)[C@H](CCCNC(=N)N)NC(=O)[C@H](CSSC[C@H](NC(=O)[C@H](CC(=O)O)NC(=O)[C@H](C)N)C(=O)N[C@@H](CC(C)C)C(=O)NCC(=O)N[C@@H](Cc4ccccc4)C(=O)N[C@@H](CCSC)C(=O)N[C@@H](CCCNC(=N)N)C(=O)N[C@@H](CCCCN)C(=O)N2)NC(=O)[C@H](CSSC[C@@H](C(=O)N[C@@H](CCCCN)C(=O)N[C@@H](Cc2ccc(O)cc2)C(=O)N[C@H](C(=O)N[C@@H](Cc2ccccc2)C(N)=O)C(C)C)NC(=O)[C@H](Cc2c[nH]c4ccccc24)NC(=O)[C@H](CCCCN)NC(=O)[C@H](Cc2cnc[nH]2)NC(=O)[C@H]([C@@H](C)O)NC(=O)[C@H](CCCNC(=N)N)NC(=O)[C@H](CO)NC3=O)NC(=O)[C@H](CCCCN)NC(=O)[C@H](CC(=O)O)NC(=O)[C@H](CC(N)=O)NC(=O)[C@H](CC(=O)O)NC(=O)[C@@H]2CCCN2C1=O | > 5 |
| CC[C@H](C)[C@@H]1NC(=O)[C@@H]2CSSC[C@@H]3NC(=O)[C@H](C(C)C)NC(=O)[C@H](CC(C)C)NC(=O)[C@H](CC(N)=O)NC(=O)[C@@H]4CCCN4C(=O)[C@H](CCCNC(=N)N)NC(=O)[C@H](CSSC[C@H](NC(=O)[C@@H](N)CC(=O)O)C(=O)N[C@@H](CC(C)C)C(=O)NCC(=O)N[C@@H](C)C(=O)N[C@@H](Cc4ccccc4)C(=O)N[C@@H](CCCNC(=N)N)C(=O)N[C@@H](CCCCN)C(=O)N2)NC(=O)[C@H](CSSC[C@@H](C(=O)N[C@@H](CCCCN)C(=O)N[C@@H](Cc2ccc(O)cc2)C(=O)N[C@H](C(=O)N[C@@H](Cc2ccccc2)C(N)=O)C(C)C)NC(=O)[C@H](Cc2c[nH]c4ccccc24)NC(=O)[C@H](CCCCN)NC(=O)[C@H](Cc2cnc[nH]2)NC(=O)[C@H](CC(C)C)NC(=O)[C@H](CCCNC(=N)N)NC(=O)[C@H](CO)NC3=O)NC(=O)[C@H](CCCCN)NC(=O)[C@H](CC(=O)O)NC(=O)[C@H](CC(N)=O)NC(=O)[C@H](CC(=O)O)NC(=O)[C@@H]2CCCN2C1=O (H-DCLGAFRKCIPDNDKCCRPNLVCSRLHKWCKYVF-NH2; disulfide 2-17, 9-23, 16-30) | > 10 |
| CC[C@H](C)[C@@H]1NC(=O)[C@@H]2CSSC[C@@H]3NC(=O)[C@H](C(C)C)NC(=O)[C@H](CC(C)C)NC(=O)[C@H](CC(N)=O)NC(=O)[C@@H]4CCCN4C(=O)[C@H](CCCNC(=N)N)NC(=O)[C@H](CSSC[C@H](NC(=O)[C@@H](N)CC(=O)O)C(=O)N[C@@H](CC(C)C)C(=O)NCC(=O)N[C@@H](Cc4ccccc4)C(=O)N[C@@H](CCSC)C(=O)N[C@@H](CCCNC(=N)N)C(=O)N[C@@H](CCCCN)C(=O)N2)NC(=O)[C@H](CSSC[C@@H](C(=O)N[C@@H](CCCCN)C(=O)N[C@@H](Cc2ccc(O)cc2)C(=O)N[C@H](C(=O)N[C@@H](Cc2ccccc2)C(=O)N[C@@H](C)C(N)=O)C(C)C)NC(=O)[C@H](Cc2c[nH]c4ccccc24)NC(=O)[C@H](CCCCN)NC(=O)[C@H](Cc2cnc[nH]2)NC(=O)[C@H]([C@@H](C)O)NC(=O)[C@H](CCCNC(=N)N)NC(=O)[C@H](CO)NC3=O)NC(=O)[C@H](CCCCN)NC(=O)[C@H](CC(=O)O)NC(=O)[C@H](CC(N)=O)NC(=O)[C@H](CC(=O)O)NC(=O)[C@@H]2CCCN2C1=O | > 5 |
| CC[C@H](C)[C@@H]1NC(=O)[C@@H]2CSSC[C@@H]3NC(=O)[C@H](C(C)C)NC(=O)[C@H](CC(C)C)NC(=O)[C@H](CC(N)=O)NC(=O)[C@@H]4CCCN4C(=O)[C@H](CCCNC(=N)N)NC(=O)[C@H](CSSC[C@H](NC(=O)[C@@H](N)CC(=O)O)C(=O)N[C@@H](CC(C)C)C(=O)NCC(=O)NCC(=O)N[C@@H](CCSC)C(=O)N[C@@H](CCCNC(=N)N)C(=O)N[C@@H](CCCCN)C(=O)N2)NC(=O)[C@H](CSSC[C@@H](C(=O)N[C@@H](CCCCN)C(=O)N[C@@H](Cc2ccc(O)cc2)C(=O)N[C@H](C(=O)N[C@@H](Cc2ccccc2)C(N)=O)C(C)C)NC(=O)[C@H](Cc2c[nH]c4ccccc24)NC(=O)[C@H](CCCCN)NC(=O)[C@H](Cc2cnc[nH]2)NC(=O)[C@H]([C@@H](C)O)NC(=O)[C@H](CCCNC(=N)N)NC(=O)[C@H](CO)NC3=O)NC(=O)[C@H](CCCCN)NC(=O)[C@H](CC(=O)O)NC(=O)[C@H](CC(N)=O)NC(=O)[C@H](CC(=O)O)NC(=O)[C@@H]2CCCN2C1=O (H-DCLGGMRKCIPDNDKCCRPNLVCSRTHKWCKYVF-NH2; disulfide 2-17, 9-23, 16-30) | > 10 |
| CSCC[C@@H]1NC(=O)[C@H](Cc2ccccc2)NC(=O)CNC(=O)[C@H](CC(C)C)NC(=O)[C@@H](NC(=O)[C@@H](N)CC(=O)O)CSSC[C@@H]2NC(=O)[C@@H]3CSSC[C@@H](C(=O)N[C@@H](CCCCN)C(=O)N[C@@H](Cc4ccc(O)cc4)C(=O)N[C@H](C(=O)N[C@@H](Cc4ccccc4)C(N)=O)C(C)C)NC(=O)[C@H](Cc4c[nH]c5ccccc45)NC(=O)[C@H](CCCCN)NC(=O)[C@H](Cc4cnc[nH]4)NC(=O)[C@H]([C@@H](C)O)NC(=O)[C@H](CCCNC(=N)N)NC(=O)[C@H](CO)NC(=O)[C@H](CSSC[C@H](NC(=O)[C@H](CCCCN)NC(=O)[C@H](CCCNC(=N)N)NC1=O)C(=O)N[C@@H](C)C(=O)N1CCC[C@H]1C(=O)N[C@@H](CC(=O)O)C(=O)N[C@@H](CC(N)=O)C(=O)N[C@@H](CC(=O)O)C(=O)N[C@@H](CCCCN)C(=O)N3)NC(=O)[C@H](C(C)C)NC(=O)[C@H](CC(C)C)NC(=O)[C@H](CC(N)=O)NC(=O)[C@@H]1CCCN1C(=O)[C@H](CCCNC(=N)N)NC2=O (H-DCLGFMRKCAPDNDKCCRPNLVCSRTHKWCKYVF-NH2; disulfide 2-17, 9-23, 16-30) | > 5 |
